Ends that are not written are not given here.

Assay [1] relates to isolated guinea pig gallbladder. The experiment in a line: Isolated guinea pig gallbladder assay (contraction, % CCK-induced maximal response). The conditions noted are these: for % contraction / % contraction at 1 µM: Cavia porcellus; for % contraction at 1 µM: read-out: % Contraction (1 μM), expressed as % CCK-induced maximal response. The protocol: 3. GUINEA PIG GALL BLADDER ASSAY
Gallbladders are removed from guinea pigs sacrificed by cervical dislocation. The isolated gallbladders are cleaned of adherent connective tissue and cut into two rings from each animal (2-6 mm in length). […] Tissues are connected via gold chains and stainless steel mounting wires to isometric force displacement transducers (Grass, Model FT03 D). Responses are then recorded on a polygraph (Grass, Model 7E).
Rings are gradually stretched (over a 120 min. period) to a basal resting tension of 1 gm which is maintained throughout the experiment. During the basal tension adjustment period, the rings are exposed to acetylcholine (10^-6 M) four times to verify tissue contractility. The tissues are then exposed to a submaximal dose of sulfated CCK-8 (Sigma, 3×10^-9 M). After obtaining a stable response, the tissues are washed out 3 times rapidly and every 5 to 10 minutes for 1 hour to reestablish a stable baseline.
As a final test, ACH (10 μM) is added to induce maximal contraction.

For a further assay, the system named is rat gastric emptying. The assay can be described thus: Rat gastric emptying assay (methyl cellulose/phenol red test meal). Particulars: vehicle 66. It is filed as in vivo. The method, then: 7. RAT GASTRIC EMPTYING PROTOCOL
Methyl Cellulose (MC) Test Meal
1. Disperse MC in water at 80° C. at a final concentration of 1.5% under continuous stirring. Cool to room temperature.
2. Add Phenol Red (50 mg/100) to solution.
3. Keep solution stirring during entire experiment.
1. Food deprive animals for 18 hours.
2. Inject test drug/prop. glycol or prop. glycol alone intraperitoneally.
3. After 5 minutes, gavage 1.5 mL of Pheno Red/MC solution
1. After 20 minutes, decapitate animal
2. Clamp stomach at the pylorus and cardia ends, and rinse in 0.9% NaCl.
3. Place stomach in 100 mL of 0.1N NaOH, cut into small pieces, and homogenize for 30 seconds.
4. Let settle at room temperature for 60 minutes.
5. In centrifuge tube, add 5 mL of supernatant and 0.5 mL of trichloroacetic acid (29% w/v), and centrifuge at 2,800 rpm for 20 minutes.
6. Decant supernatant, and add 4 mL of 0.5N NaOH and read absorbance at a wavelength of 560 nm.
The standard stomach is determined from the phenol red recovered in stomachs of rats decapitated immediately after intragastric infusion of MC/phenol red.

The conditions of assay [2]: literature background; cited from earlier work.
Setting [3] is: intraperitoneally at 0.1 μmoles/kg.

In assay [1] (Table 2, delivered at 3 μM), `COc1ccc(N(C(=O)CN2C(=O)C(Cc3n[nH]c4ccccc34)C(=O)N(c3ccccc3)c3ccccc32)C(C)C)cc1` (stereo not drawn) [CCK-A agonist 1, 2[3(1H-Indazol-3-ylmethyl)-2,4-dioxo-5-phenyl-2,3,4,5-tetrahydro-benzo[b]1,4]diazepin1-ylN-isopropyl-N-(4-methoxy-phenyl) acetamide, reference compound] came in with a % contraction of 87%. In the assay with rat gastric emptying (setting [3]), the “rat gastric emptying: % emptying” value is reported as 6%. For the molecule `COc1ccc(N(C(=O)CN2C(=O)C(Cc3n[nH]c4ccccc34)C(=O)N(c3ccccn3)c3ccccc32)C(C)C)cc1` (stereo not drawn) [CCK-A agonist 2, reference compound], the % contraction in assay [1] (Table 2, delivered at 30 μM) was 100%. In addition, the “rat gastric emptying: % emptying” value in the assay with rat gastric emptying (setting [3]) was found to be 2.5%. Consider `COc1ccc(N(C(=O)CN2C(=O)[C@H](Cc3c[nH]c4ccccc34)NC(=O)c3ccccc32)C(C)C)cc1` [Example 21, (S)-2-[3-(1H-Indol-3-ylmethyl)-2,5-dioxo-2,3,4,5-tetrahydro-benzo[e][1,4]diazepin-1-yl]-N-isopropyl-N-(4-methyoxy-phenyl)-acetamide], for which the % contraction at 1 µM in assay [1] (Table 1, 1 μM) stood at 54%.

As for `COc1ccc(N(C(=O)CN2C(=O)[C@H](Cc3c[nH]c4ccccc34)n3cnnc3-c3ccccc32)C(C)C)cc1` [Example 22, S-2-[4-(1H-Indol-3-ylmethyl)-5-oxo-6,5-dihydro-1,2,3a,6-tetraaza-benzo[e]azulene-6-yl}-N-isopyropyl-N-(4-methoxy-phenyl)acetamide], in assay [1] (Table 1, 1 μM), the % contraction at 1 µM stood at 36%. With `COc1ccc(N(C(=O)CN2C(=O)[C@@H](Cc3c[nH]c4ccccc34)n3cnnc3-c3ccccc32)C(C)C)cc1` [Example 23, (R)-2-[4-(1H-Indol-3-ylmethyl)-5-oxo-6,5-dihydro-1,2,3a,6-tetraaza-benzo[e]azulene6-yl}-N-isopropyl-N-(4-methoxy-phenyl)-acetamide], the % contraction at 1 µM in assay [1] (Table 1, 1 μM) was determined as 36%.

Consider `COc1ccc(N(C(=O)CN2C(=O)[C@@H](Cc3c[nH]c4ccccc34)NC(=O)c3c(CC(=O)O)cccc32)C(C)C)cc1` [Example 24], for which, in assay [1] (Table 1, 1 μM), the “% Contraction (1 μM), expressed as % CCK-induced maximal response” value is recorded as 93%. In addition, in assay [1] (Table 1, 30 μM), the “% Contraction (30 μM), expressed as % CCK-induced maximal response” value is on record as 79%. As to “CCK-8: CCK8 is the Cterminal octapeptide of CCK (DYMGWMDF; ends and bridges not checked; UniProt P06307 96-103, looked up) [reference compound]”, the “Isolated guinea pig gallbladder: % contraction” value in assay [1] (Table 2, CCK-8 delivered at 1 μM) was 100%. Further, the “rat gastric emptying: % emptying” value in the assay with rat gastric emptying (CCK-8 intraperitoneally at 30 nmoles/kg) is 0%.

B1: CCK: a peptide found in the gastrointestinal tract and the central nervous system (peptide, UniProt P06307 21-115, looked up)
Cholecystokinin: QPVPPADPAGSGLQRAEEAPRRQLRVSQRTDGESRAHLGALLARYIQQARKAPSGRMSIVKNLQNLDPSHRISDRDYMGWMDFGRRSAEEYEYPS
modifications: Cholecystokinin
notes: a peptide found in the gastrointestinal tract and the central nervous system
As for B1, the “inhibition of gastric emptying in humans” value in assay [2] is on record as “inhibit gastric emptying in humans”.

The values are drawn from patent US5795887A, “Method of inducing cholecystokinin agonist activity using 1,4- Benzodiazepine compounds” (Glaxo Wellcome Inc., priority 1994, dated 1998).
